Test results published in ChEMBL document CHEMBL3352567, “Radiosynthesis and ex vivo evaluation of [(18)F]-(S)-3-(6-(3-fluoropropoxy)benzo[d]isoxazol-3-yl)-5-(methoxymethyl)oxazolidin-2-one for imaging MAO-B with PET” (Bioorg Med Chem Lett, 2015).

Assays:
[1] = target: T1, Amine oxidase [flavin-containing] B (Homo sapiens, UniProt P27338); test: Inhibition of human recombinant MAO-B by luminescence analysis
T1 sequence (P27338 whole entry): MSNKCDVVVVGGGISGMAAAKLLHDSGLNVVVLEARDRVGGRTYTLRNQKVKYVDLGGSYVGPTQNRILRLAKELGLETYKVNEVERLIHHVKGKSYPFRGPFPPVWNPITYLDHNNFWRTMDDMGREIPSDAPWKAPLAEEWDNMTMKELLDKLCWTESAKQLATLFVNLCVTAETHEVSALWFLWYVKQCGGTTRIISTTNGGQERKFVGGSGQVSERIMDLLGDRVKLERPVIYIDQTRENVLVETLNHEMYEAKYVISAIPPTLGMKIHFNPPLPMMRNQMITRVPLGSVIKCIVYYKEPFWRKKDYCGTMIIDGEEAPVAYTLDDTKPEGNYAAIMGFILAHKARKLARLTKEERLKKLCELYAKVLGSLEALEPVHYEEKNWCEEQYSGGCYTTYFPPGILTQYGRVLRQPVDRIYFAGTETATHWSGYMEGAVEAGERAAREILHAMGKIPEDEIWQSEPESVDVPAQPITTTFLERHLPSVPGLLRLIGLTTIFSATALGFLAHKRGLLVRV

Homo sapiens = species: Homo sapiens; test: Selectivity index, ratio of IC50 for human recombinant MAO-B to IC50 for human recombinant MAO-A
[2] = n-Octanol-phosphate buffered saline distribution coefficient, log D of the compound at pH 7.4 by shake flask method; assay type: physicochemical
Cortex [3] = test: Drug uptake in conscious Sprague-Dawley rat cortex at < 10 nmol/kg, tail-vein injections at 2 mins; assay type: ADME, tissue-based; details: in vivo, iv
Cortex [4] = test: Drug uptake in conscious Sprague-Dawley rat cortex at < 10 nmol/kg, tail-vein injections at 15 mins; assay type: ADME, tissue-based; details: in vivo, iv, 0.25 h
Striatum [5] = test: Drug uptake in conscious Sprague-Dawley rat striatum at < 10 nmol/kg, tail-vein injections at 40 mins in presence of 2 mg/kg, ip L-deprenyl inhibitor for 1 hr; assay type: ADME, organism-based; set-up: dose 2 mg/kg, route intraperitoneal; details: in vivo
Bone [6] = test: Drug metabolism in conscious Sprague-Dawley rat bone assessed as parent drug level at < 10 nmol/kg, tail-vein injections at 2 mins; assay type: ADME, tissue-based, Bone element; details: in vivo, iv
Brain [7] = test: Drug uptake in conscious Sprague-Dawley rat brain region at < 10 nmol/kg, tail-vein injections at 15 mins in presence of 2 mg/kg, ip L-deprenyl inhibitor for 1 hr; assay type: ADME, organism-based; set-up: dose 2 mg/kg, route intraperitoneal; details: in vivo, 0.25 h
Cerebellum [8] = test: Drug uptake in conscious Sprague-Dawley rat cerebellum at < 10 nmol/kg, tail-vein injections at 15 mins in presence of 2 mg/kg, ip L-deprenyl inhibitor for 1 hr; assay type: ADME, organism-based; set-up: dose 2 mg/kg, route intraperitoneal; details: in vivo, 0.25 h
Cortex [9] = test: Drug uptake in conscious Sprague-Dawley rat cortex at < 10 nmol/kg, tail-vein injections at 40 mins; assay type: ADME, tissue-based; details: in vivo, iv
Cerebellum [10] = test: Drug uptake in conscious Sprague-Dawley rat cerebellum at < 10 nmol/kg, tail-vein injections at 2 mins; assay type: ADME, tissue-based; details: in vivo, iv
[11] = Plasma concentration in conscious Sprague-Dawley rat plasma assessed as radiotracer at < 10 nmol/kg, tail-vein injections at 2 mins; assay type: ADME; details: iv, read-out: Stability
Cerebellum [12] = test: Drug uptake in conscious Sprague-Dawley rat cerebellum at < 10 nmol/kg, tail-vein injections at 40 mins in presence of 2 mg/kg, ip L-deprenyl inhibitor for 1 hr; assay type: ADME, organism-based; set-up: dose 2 mg/kg, route intraperitoneal; details: in vivo
Striatum [13] = test: Drug uptake in conscious Sprague-Dawley rat striatum at < 10 nmol/kg, tail-vein injections at 40 mins; assay type: ADME, tissue-based; details: in vivo, iv
Brain [14] = test: Drug uptake in conscious Sprague-Dawley rat brain region at < 10 nmol/kg, tail-vein injections at 2 mins; assay type: ADME, tissue-based; details: in vivo, iv
Brain [15] = test: Drug uptake in conscious Sprague-Dawley rat brain region at < 10 nmol/kg, tail-vein injections at 40 mins in presence of 2 mg/kg, ip L-deprenyl inhibitor for 1 hr; assay type: ADME, organism-based; set-up: dose 2 mg/kg, route intraperitoneal; details: in vivo
Brain [16] = test: Drug uptake in conscious Sprague-Dawley rat brain region at < 10 nmol/kg, tail-vein injections at 15 mins; assay type: ADME, tissue-based; details: in vivo, iv, 0.25 h
Striatum [17] = test: Drug uptake in conscious Sprague-Dawley rat striatum at < 10 nmol/kg, tail-vein injections at 15 mins in presence of 2 mg/kg, ip L-deprenyl inhibitor for 1 hr; assay type: ADME, organism-based; set-up: dose 2 mg/kg, route intraperitoneal; details: in vivo, 0.25 h
Striatum [18] = test: Drug uptake in conscious Sprague-Dawley rat striatum at < 10 nmol/kg, tail-vein injections at 2 mins; assay type: ADME, tissue-based; details: in vivo, iv
Cortex [19] = test: Drug uptake in conscious Sprague-Dawley rat cortex at < 10 nmol/kg, tail-vein injections at 40 mins in presence of 2 mg/kg, ip L-deprenyl inhibitor for 1 hr; assay type: ADME, organism-based; set-up: dose 2 mg/kg, route intraperitoneal; details: in vivo
Cerebellum [20] = test: Drug uptake in conscious Sprague-Dawley rat cerebellum at < 10 nmol/kg, tail-vein injections at 40 mins; assay type: ADME, tissue-based; details: in vivo, iv
[21] = Plasma concentration in conscious Sprague-Dawley rat plasma assessed as radiotracer at < 10 nmol/kg, tail-vein injections at 40 mins; assay type: ADME, cell-free; details: iv, read-out: Stability
Brain [22] = test: Drug uptake in conscious Sprague-Dawley rat brain region at < 10 nmol/kg, tail-vein injections at 40 mins; assay type: ADME, tissue-based; details: in vivo, iv
Cortex [23] = test: Drug uptake in conscious Sprague-Dawley rat cortex at < 10 nmol/kg, tail-vein injections at 15 mins in presence of 2 mg/kg, ip L-deprenyl inhibitor for 1 hr; assay type: ADME, organism-based; set-up: dose 2 mg/kg, route intraperitoneal; details: in vivo, 0.25 h
Cerebellum [24] = test: Drug uptake in conscious Sprague-Dawley rat cerebellum at < 10 nmol/kg, tail-vein injections at 15 mins; assay type: ADME, tissue-based; details: in vivo, iv, 0.25 h
Bone [25] = test: Drug metabolism in conscious Sprague-Dawley rat bone assessed as parent drug level at < 10 nmol/kg, tail-vein injections at 40 mins; assay type: ADME, tissue-based, Bone element; details: in vivo, iv
Striatum [26] = test: Drug uptake in conscious Sprague-Dawley rat striatum at < 10 nmol/kg, tail-vein injections at 15 mins; assay type: ADME, tissue-based; details: in vivo, iv, 0.25 h

Which results are given for `COC[C@@H]1CN(c2noc3cc(OCCCF)ccc23)C(=O)O1`?
IC50 [1]: 330 nM; Ratio IC50 (Homo sapiens): 6; logD [2]: 2.6

With `COC[C@@H]1CN(c2noc3cc(OCCCCCF)ccc23)C(=O)O1` as the compound, how does the IC50 [1] read?
The IC50 was 110 nM.

And the Ratio IC50 (Homo sapiens)?
Its Ratio IC50 is 7730.

What does the source list for `COC[C@@H]1CN(c2noc3cc(OCCCCF)ccc23)C(=O)O1`?
IC50 [1]: 120 nM; Ratio IC50 (Homo sapiens): 54

Which SUV (Cortex [3]) does the source give for `COC[C@@H]1CN(c2noc3cc(OCCC[18F])ccc23)C(=O)O1` here?
The SUV was 1.7.

What about the SUV (Cortex [4]) of the same compound?
Its SUV is 0.51.

And the SUV (Striatum [5])?
The SUV was 0.2.

What about the SUV (Bone [6]) of the same compound?
The SUV was 0.45.

What about the SUV (Brain [7]) of the same compound?
Its SUV is 0.5.

And the SUV (Cerebellum [8])?
Its SUV is 0.5.

And the SUV (Cortex [9])?
Its SUV is 0.19.

What about the SUV (Cerebellum [10]) of the same compound?
The SUV was 1.7.

What about the remaining at 2 min [11] of the same compound?
Its remaining at 2 min is 90%.

And the SUV (Cerebellum [12])?
Its SUV is 0.2.

And the SUV (Striatum [13])?
The SUV was 0.19.

What about the SUV (Brain [14]) of the same compound?
The SUV was 1.7.

What about the SUV (Brain [15]) of the same compound?
Its SUV is 0.2.

What about the SUV (Brain [16]) of the same compound?
The SUV was 0.51.

What about the SUV (Striatum [17]) of the same compound?
The SUV was 0.5.

What about the SUV (Striatum [18]) of the same compound?
Its SUV is 1.7.

And the SUV (Cortex [19])?
Its SUV is 0.2.

And the SUV (Cerebellum [20])?
Its SUV is 0.19.

And the remaining at 40 min [21]?
Its remaining at 40 min is 33%.

What about the SUV (Brain [22]) of the same compound?
Its SUV is 0.19.

And the SUV (Cortex [23])?
Its SUV is 0.5.

And the SUV (Cerebellum [24])?
Its SUV is 0.51.

And the SUV (Bone [25])?
Its SUV is 3.1.

What about the SUV (Striatum [26]) of the same compound?
Its SUV is 0.51.

Which IC50 [1] does the source give for `COC[C@@H]1CN(c2noc3cc(OCCCC(F)(F)F)ccc23)C(=O)O1` here?
Its IC50 is 47 nM.

What about the Ratio IC50 (Homo sapiens) of the same compound?
The Ratio IC50 was 4680.

What about the logD [2] of the same compound?
Its logD is 3.34.
